Measured values published in patent US7692030B2, “Conjugates of artemisinin-related endoperoxides and hydrazone derivatives for the treatment of cancer” (University of Washington, priority 2006, dated 2010).

How the values were obtained:
Assay in all cases: NCI DTP human tumor cell line screen (SRB)
Type in all cases: cell-based
T-47D = conditions: Breast Cancer, 10 μM, 48 h
Procedure: (§1) Representative compounds of the invention, prepared as described in EXAMPLES 1-6, were submitted to the Developmental Therapeutics Program of the United States National Cancer Institute (NCl) to screen for anti-cancer activity. The anti-cancer activities of the six compounds were tested against approximately 60 human tumor cell lines representing leukemia, melanoma, and cancers of the lung, colon, breast, ovary, kidney, prostate, and brain. The following screening methodology was provided by the NCl. […] For experimental screens, cells were inoculated into 96 well microtiter plates in 100 μL at plating densities ranging from 5,000 to 40,000 cells/well depending on the doubling time of individual cell lines. After cell inoculation, the microtiter plates were incubated at 37° C., 5% carbon dioxide, 95% air and 100% relative humidity for 24 hours prior to addition of the compounds. After 24 hours of incubation, two plates of each cell line were fixed in situ with trichloroacetic acid (TCA) to represent a measurement of the cell population for each cell line at the time of compound addition (Tz). The compounds were solubilized in dimethyl sulfoxide at 400-fold the desired final maximum test concentration and stored frozen prior to use. At the time of drug addition, frozen aliquots of the compounds thawed and diluted with complete medium containing 50 μg/ml gentamicin. Aliquots of 100 μl of these different compound dilutions were added to the appropriate microtiter wells already containing 100 μl of medium, resulting in the required final compound concentration of 10 μM. Following compound addition, the plates were incubated for an additional 48 h at 37° C., 5% carbon dioxide, 95% air, and 100% relative humidity. For adherent cells, the assay was terminated by the addition of cold TCA. Cells were fixed in situ by the gentle addition of 50 μl of cold 50% (w/v) TCA (final concentration, 10% TCA) and incubated for 60 minutes at 4° C. The supernatant was discarded, and the plates were washed five times with tap water and air dried. Sulforhodamine B (SRB) solution (100 μl) at 0.4% (w/v) in 1% acetic acid was added to each well, and plates were incubated for 10 minutes at room temperature. After staining, unbound dye was removed by washing five times with 1% acetic acid and the plates were air dried. Bound stain was subsequently solubilized with 10 mM trizma base, and the absorbance was read on an automated plate reader at a wavelength of 515 nm. For suspension cells, the methodology was the same except that the assay was terminated by fixing settled cells at the bottom of the wells by gently adding 50 μl of 80% TCA (final concentration, 16% TCA). Using the three absorbance measurements [time zero, (Tz), control growth, (C), and test growth in the presence of compound (Ti)], the percentage growth was calculated at each of the compound concentrations levels. Percentage growth inhibition was calculated with the following algorithms: [(Ti−Tz)/(C−Tz)]×100 for concentrations for which Ti>/=Tz [(Ti−Tz)/Tz]×100 for concentrations for which Ti<Tz The results of the NCl in vitro anticancer screening with six compounds against various human tumor cell lines are presented below in Tables 2-7. […] The growth percent mean, delta, and range for each compound are given below.

HCC-2998 = conditions: Colon Cancer, 10 μM, 48 h
Procedure: as §1

SK-MEL-28 = conditions: Melanoma, 10 μM, 48 h
Procedure: as §1

SK-MEL-2 = conditions: Melanoma, 10 μM, 48 h
Procedure: as §1

MDA-MB-435 = conditions: Breast Cancer, 10 μM, 48 h
Procedure: as §1

UACC-257 = conditions: Melanoma, 10 μM, 48 h
Procedure: as §1

SK-OV-3 = conditions: Ovarian Cancer, 10 μM, 48 h
Procedure: as §1

SNB-75 = conditions: CNS Cancer, 10 μM, 48 h
Procedure: as §1

EKVX = conditions: Non-Small Cell Lung Cancer, 10 μM, 48 h
Procedure: as §1

SR = conditions: Leukemia, 10 μM, 48 h
Procedure: as §1

OVCAR-8 = conditions: Ovarian Cancer, 10 μM, 48 h
Procedure: as §1

LOX IMVI = conditions: Melanoma, 10 μM, 48 h
Procedure: as §1

CCRF-CEM = conditions: Leukemia, 10 μM, 48 h
Procedure: as §1

HOP-92 = conditions: Non-Small Cell Lung Cancer, 10 μM, 48 h
Procedure: as §1

MOLT-4 = conditions: Leukemia, 10 μM, 48 h
Procedure: as §1

MDA-MB-231/ATCC = conditions: Breast Cancer, 10 μM, 48 h
Procedure: as §1

COLO 205 = conditions: Colon Cancer, 10 μM, 48 h
Procedure: as §1

NCI-H23 = conditions: Non-Small Cell Lung Cancer, 10 μM, 48 h
Procedure: as §1

SNB-19 = conditions: CNS Cancer, 10 μM, 48 h
Procedure: as §1

OVCAR-3 = conditions: Ovarian Cancer, 10 μM, 48 h
Procedure: as §1

SN12C = conditions: Renal Cancer, 10 μM, 48 h
Procedure: as §1

HCT-15 = conditions: Colon Cancer, 10 μM, 48 h
Procedure: as §1

HS 578T = conditions: Breast Cancer, 10 μM, 48 h
Procedure: as §1

K-562 = conditions: Leukemia, 10 μM, 48 h
Procedure: as §1

BT-549 = conditions: Breast Cancer, 10 μM, 48 h
Procedure: as §1

SK-MEL-5 = conditions: Melanoma, 10 μM, 48 h
Procedure: as §1

HOP-62 = conditions: Non-Small Cell Lung Cancer, 10 μM, 48 h
Procedure: as §1

SW-620 = conditions: Colon Cancer, 10 μM, 48 h
Procedure: as §1

UACC-62 = conditions: Melanoma, 10 μM, 48 h
Procedure: as §1

TK-10 = conditions: Renal Cancer, 10 μM, 48 h
Procedure: as §1

HT29 = conditions: Colon Cancer, 10 μM, 48 h
Procedure: as §1

SF-295 = conditions: CNS Cancer, 10 μM, 48 h
Procedure: as §1

Compound | Growth Percent (T-47D) [%] | Growth Percent (HCC-2998) [%] | Growth Percent (SK-MEL-28) [%] | Growth Percent (SK-MEL-2) [%] | Growth Percent (MDA-MB-435) [%] | Growth Percent (UACC-257) [%] | Growth Percent (SK-OV-3) [%] | Growth Percent (SNB-75) [%] | Growth Percent (EKVX) [%] | Growth Percent (SR) [%] | Growth Percent (OVCAR-8) [%] | Growth Percent (LOX IMVI) [%] | Growth Percent (CCRF-CEM) [%] | Growth Percent (HOP-92) [%] | Growth Percent (MOLT-4) [%] | Growth Percent (MDA-MB-231/ATCC) [%] | Growth Percent (COLO 205) [%] | Growth Percent (NCI-H23) [%] | Growth Percent (SNB-19) [%] | Growth Percent (OVCAR-3) [%] | other results
CC1CCC2C(C)C(OCc3ccc(C(=O)NN=Cc4ccccc4O)cc3)OC3OC4(C)CCC1C32OO4 (stereo not shown) [ART-Phe-Sal, N′-(2-hydroxybenzylidene)-4-(dihydroxyartemisinin-methyl)-phenyl carbohydrazide] | 34.12 | 37.90 | 22.75 | −20.76 | 15.04 | 22.90 | 17.00 | −16.75 | 28.62 | −44.93 | 24.17 | 1.55 | −19.45 | 56.27 | −30.65 | 47.38 | 26.59 | 31.01 | 27.53 | 29.79 | Growth Percent (SN12C): 25.25%; Growth Percent (HCT-15): 32.15%; Growth Percent (HS 578T): 29.71%; Growth Percent (K-562): 8.87%; Growth Percent (BT-549): 25.29%; Growth Percent (SK-MEL-5): −56.71%; Growth Percent (HOP-62): 12.31%; Growth Percent (SW-620): 30.24%; Growth Percent (UACC-62): −17.63%; Growth Percent (TK-10): 20.96%; Growth Percent (HT29): 22.93%; Growth Percent (SF-295): −2.87%
CC1CCC2C(C)C(OCc3ccc(C(=O)NN=Cc4ccccc4)cc3)OC3OC4(C)CCC1C32OO4 (stereo not shown) [ART-Phe-Bz, N′-(benzylidene)-4-(dihydroxyartemisinin-methyl)-phenyl carbohydrazide] | 11.51 | 22.05 | 45.74 | −3.22 | 12.48 | 25.96 | 53.03 | 0.39 | 16.45 | −24.04 | 26.65 | 8.89 | 6.71 | 2.94 | −25.73 | 26.78 | 17.72 | 30.10 | 51.29 | 11.56 | Growth Percent (SN12C): 23.38%; Growth Percent (HCT-15): 16.27%; Growth Percent (HS 578T): 34.12%; Growth Percent (K-562): 7.86%; Growth Percent (BT-549): 14.60%; Growth Percent (SK-MEL-5): 2.01%; Growth Percent (HOP-62): 52.14%; Growth Percent (SW-620): 19.48%; Growth Percent (UACC-62): 24.51%; Growth Percent (TK-10): 19.78%; Growth Percent (HT29): 18.46%; Growth Percent (SF-295): 14.30%
